This is an account of results in PubChem BioAssay AID179 (DTP/NCI, 2004).

The test system of the assay is CEM cells HIV-1 protection, formazan growth assay. The assay is described as follows: NCI AIDS Antiviral Assay. The note with it: for IC50: measured here: growth of uninfected CEM cells. An outline of the steps:
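Five concentrations of each compound were applied to infected and uninfected human CEM cells. Protection from HIV-1 was judged from growth measured with a soluble formazan assay.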

Several values for one entry are separate records, joined by “and”; a condition that tells them apart may be missing. Equal entries are not always repeated. Activity calls are given as the source filed them.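 The calls were made as follows: active = compounds giving half or more protection of infected cells from virus-caused growth loss, again on retest; inactive = the rest.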 Where a SMILES comes first, the peptide text is derived from it. The star is where a group is joined. Boc = CC(C)(C)OC(=O)*

A word on the EC50: it is the midpoint of the concentration-response curve. One may read the IC50 as the concentration at which inhibition is half-maximal. Higher therefore signals weaker potency. Turning to `CC(C)c1cccc(C(C)C)c1NC(=O)/C(Cc1nc2ccc(Cl)cc2[nH]c1=O)=N\NC(=O)C[N+](C)(C)C`, the EC50 is greater than 162 µM and the IC50 is greater than 162 µM.
On to `CCOP(=O)(OCC)/C(C#N)=C/c1ccoc1`, for which the EC50 is greater than 977 µM and the IC50 is greater than 977 µM.
Turning to `CCCCCC/C(CC(=O)CCC(=O)NCCc1ccccc1)=N\NC(=O)c1ccc2ccccc2c1O`, the EC50 is greater than 251 µM and the IC50 was determined as 14.5 µM.
In the case of `COc1ccc(/C(C#N)=C/c2ccc(OC)c(OC)c2)cc1`, the EC50 was greater than 200 µM; the IC50 was 64.6 µM and > 33.9 µM.
As for `CCn1c(=O)c2c(=O)[nH][nH]c2c2ccccc21`, the EC50 was greater than 200 µM and the IC50 is greater than 200 µM.
Take `COc1cc2c(cc1OC)-c1cc3ccccc3c(=O)n1CCC2`: the EC50 was greater than 20 µM and the IC50 is 2.82 µM.
For the molecule `CCCCC(C)(C/C=C/[C@@H]1[C@@H](C(O)CCCCCC(=O)OC)C(=O)C[C@H]1O[Si](C)(C)C(C)(C)C)O[Si](C)(C)C` (some centres not stated), the outcome was inactive.
Turning to `Cc1ccc(NC(=O)CC(=O)N2N=C(N(CCC#N)c3cccc(C)c3)CC2c2ccccc2)cc1` (configuration not stated), the EC50 was greater than 75.9 µM and the IC50 was greater than 75.9 µM.
Take `CN(C)c1ccc(/C=C/C=C2\C=Cc3ccccc32)cc1`: the EC50 was greater than 36.3 µM and the IC50 was greater than 36.3 µM.
As for `O=C(NP(=O)(N1CC1)N1CC1)c1cc(I)ccc1I`, the EC50 is greater than 200 µM and the 50% inhibitory concentration (IC50) was determined as 3.98 µM.
With `CC(=O)[O-].O=S(=O)(Nc1ncccn1)c1ccc(N=Cc2ccccc2O)cc1.O=S(=O)(Nc1ncccn1)c1ccc(N=Cc2ccccc2O)cc1.[Cu+2]`, the EC50 was greater than 200 µM and the IC50 is 38 µM.
In the same order, the values of `Cc1cc(=N)cc(C)n1O` are greater than 1820 µM and greater than 1820 µM.
For `O=c1[nH]c2cc3c(cc2n2cccc12)oc1ccccc13`, the EC50 was greater than 200 µM and the IC50 is greater than 200 µM.
`OCn1nc(Cl)c2cc(Cl)ccc21`: the EC50 is greater than 200 µM and the IC50 came out at 56.2 µM.
In the case of `O=C(O)CCCC(=O)CCCC(=O)O`, the outcome was inactive.
As to `CCCCCCN(N)C(=O)CC#N`, the EC50 was greater than 39.8 µM and the IC50 is greater than 39.8 µM.
Turning to `OCC1OC(OC[C@H](COCc2ccccc2)OCc2ccccc2)C(O)C(O)C1O` (some centres not stated), the EC50 is greater than 35.5 µM and the IC50 was greater than 35.5 µM.
With `CNS(=O)(=O)NN(C)S(=O)(=O)c1ccc(OC)cc1`, the EC50 was greater than 407 µM and the IC50 is 105 µM.
Taken in the same sequence, the figures for `Nc1nc(Cl)cc(Nc2ccc3c(c2)CCC3)n1` were greater than 200 µM and 22.4 µM.
Consider `CC[C@H]1C2OC(=O)[C@H](C)C2[C@@]2(O)C[C@@H]([C@@H]3C[C@H](C)C(=O)O3)N3CCCC[C@@]12C3=O` (some centres not stated), for which the EC50 is greater than 200 µM and the IC50 was greater than 200 µM.
Take `COC(=O)[C@]1(NC(=O)c2ccccc2)C[C@H]1C=O`: the EC50 was greater than 200 µM and the IC50 stood at 170 µM.
In the same order, the values of `CCCCCCCCCCCCCCNCC(OCC)OCC` are greater than 200 µM and 9.33 µM.
Turning to `CCOc1ccc(/C=N/[N+](C)(C)C)cc1OCC`, the EC50 was greater than 200 µM and the IC50 is greater than 200 µM.
As to `N#C[C@](CO)(NC(=O)OCc1ccccc1)C(F)F`, the EC50 was greater than 200 µM and the IC50 was greater than 200 µM.
As to `CN1C(=O)NC2ON=C(c3ccccc3)C2C1=O` (configuration not stated), the EC50 is greater than 200 µM and the IC50 is 53.7 µM.
In the same order, the values of `CCCNC(=O)C(C)(Cl)C(=O)c1ccccc1O` (configuration not stated) are greater than 479 µM and 209 µM.
Taken in the same sequence, the figures for `Cc1[nH]c2ccccc2c1C(=O)CC1(O)C(=O)Nc2c(Cl)cc(Cl)cc21` (configuration not stated) were greater than 339 µM and 158 µM.
For the molecule `CCOC(=O)/C=C/c1ccccn1`, the EC50 was greater than 1410 µM and the IC50 was determined as 646 µM.
Take `CC(=O)/C=C/c1cccc(N=S)c1`: the EC50 was greater than 2.82 µM and the IC50 was greater than 2.82 µM.
`O=C(/C=C/c1cccc2ccccc12)c1ccccc1Cl`: the EC50 is greater than 12.9 µM and the IC50 was found to be 11 µM.
In the same order, the values of `COC(=O)/C(=N\O)C(C(=O)C=C(C)C)C(=O)C(=O)Nc1ccccc1C` (configuration not stated) are greater than 692 µM and greater than 692 µM.
Taken in the same sequence, the figures for `Cc1ccc(Nc2nc3nc[nH]c3c(=O)[nH]2)cc1CO` were greater than 200 µM and greater than 200 µM.
On to `Cc1ccc2c(c1)S(=O)c1cc(C)ccc1S2`, for which the result was inactive and the IC50 stood at 14.5 µM.
On to `OCc1cc[te]c1`, for which the outcome was inactive.
With `NC1=NC(=O)CS1`, the EC50 was greater than 2140 µM and the IC50 is greater than 2140 µM.
As for `COC(=O)C1(C)OS(=O)(=O)c2ccccc21` (configuration not stated), the EC50 is greater than 537 µM and the IC50 was greater than 537 µM.
For `CCC(c1ccccc1)c1noc(CCN(CC)CC)n1` (configuration not stated), the EC50 was greater than 200 µM and the IC50 is 33.9 µM.
Regarding `N#CC(C#N)=C(N)/C(C#N)=C/c1ccc2[nH]ccc2c1`, the EC50 is greater than 200 µM and the IC50 was greater than 200 µM.
In the case of `C[C@]12CCC3(CC1C(=O)CC[C@@H]2OCc1ccccc1)OCCO3` (some centres not stated), the result was active.
With `CS(=O)(=O)c1nc2ccc(N3C(=O)c4ccccc4C3=O)cc2s1`, the outcome was inactive.
Regarding `COc1cc(OC)c2ssc3c(OC)cc(OC)c4ssc1c2-c43`, the EC50 was greater than 13.2 µM and the IC50 was greater than 13.2 µM.
For the molecule `CC(C)c1ccc(Cc2ccc(C(C)C)c(NC(=O)C(=O)Cc3cnc4ccccc4n3)c2C(C)C)c(C(C)C)c1NC(=O)C(=O)Cc1cnc2ccccc2n1`, the EC50 was greater than 13.2 µM and the IC50 is greater than 13.2 µM.
For the molecule `C=CC[C@@]12CC(C=CC13OCCO3)OC(O)[C@@H]2C` (some centres not stated), the EC50 was greater than 200 µM and the IC50 turned out to be 145 µM.
In the same order, the values of `O=C(O)c1ccc(O)c(N=Nc2cc(S(=O)(=O)O)c3cccnc3c2O)c1` are 81.3 µM and 224 µM.
`CCCCCCCCCCCCCCCC1=NCCN1C`: the EC50 is greater than 45.7 µM and the IC50 worked out at 35.5 µM.
Take `Cc1ccc(S(=O)/C=C(\NC(=O)OCc2ccccc2)C(F)(F)F)cc1` (configuration not stated): the result was inactive.
In the case of `c1ccc(-c2nnc(SCc3nc4ccccc4[nH]3)o2)cc1`, the EC50 was greater than 200 µM and the IC50 came out at 31.6 µM.
For `CC(NC(=O)C1CCCN1C(=O)CNC(=O)OC(C)(C)C)C(=O)O` (stereo not drawn) (Boc-Gly-Pro-Ala-OH; configuration not given here), the EC50 was greater than 200 µM and the IC50 is greater than 200 µM.
As for `C[N+](C)(C)CC(=O)N/N=C/c1oc(-c2c(O)ccc3ccccc23)c(-c2c(O)ccc3ccccc23)c1[N+](=O)[O-]`, the EC50 is greater than 45.7 µM and the IC50 was 24.5 µM.
Taken in the same sequence, the figures for `Cc1noc(NC2=CC(=O)C(=O)c3ccccc32)c1C` were greater than 200 µM and 3.98 µM.
Taken in the same sequence, the figures for `CC1(C)C2CCC(N)(C2)C1O` (configuration not stated) were greater than 200 µM and greater than 200 µM.
For `Cc1cc(C)nc(NS(=O)(=O)c2ccc(N)cc2)n1`, the EC50 was greater than 200 µM and the IC50 was greater than 200 µM.
For `COc1ccc(N2C=Nn3c(nc4sc5c(c4c3=O)CCCC5)C2)cc1`, the EC50 is greater than 50.1 µM and the IC50 was greater than 50.1 µM.
As to `O=C(c1c(O)cc(O)cc1O)c1c(-c2ccc(O)cc2)oc2cc(O)c3c(c12)O[C@H](c1ccc(O)cc1)[C@@H](O)C3`, the EC50 is 16.6 µM and the IC50 was 138 µM.
As to `CCc1n[nH]c(=O)[nH]1`, the EC50 is greater than 200 µM and the IC50 is greater than 200 µM.
Turning to `Fc1ccc(N=C2C=CC(=Nc3ccc(F)cc3)c3ccccc32)cc1`, the outcome was inactive.
As for `CN(/N=C/c1ccccc1O)c1ccc2ccccc2n1`, the EC50 was greater than 200 µM and the IC50 came out at 126 µM.
In the case of `OCc1cc2c(cc1CO)OCC2`, the outcome was inactive.
In the case of `O=C1C2CCC3C1C(C(=O)O)C(C(=O)O)C23` (configuration not stated), the EC50 is greater than 200 µM and the IC50 is greater than 200 µM.
Take `CCCN(CCC)C(=O)C(=O)c1c(N)[nH]n(-c2ccccc2)c1=O`: the outcome was inactive.
As to `Cc1ccc(SSc2ccc([N+](=O)[O-])cc2[N+](=O)[O-])cc1`, the EC50 is greater than 200 µM and the IC50 was 9.12 µM.
With `CN(NC(=O)c1ccc(Cl)cc1)C1=NCCCCN1`, the EC50 was greater than 200 µM and the IC50 is greater than 200 µM.
Consider `COc1cc(C2c3cc4c(cc3OC(NNc3ccccc3)C2C)OCO4)cc(OC)c1OC` (configuration not stated), for which the EC50 was greater than 200 µM and the IC50 was found to be 3.89 µM.
Turning to `N#CC1=C(N)N(c2ccccc2)C(=S)N2CCCCCCCC12` (configuration not stated), the EC50 was greater than 200 µM and the IC50 was found to be 186 µM.
Taken in the same sequence, the figures for `CCOC(=O)C1(C)CCCC1N` (configuration not stated) were greater than 200 µM and greater than 200 µM.
In the same order, the values of `[O-]/N=[N+](/[O-])C1CCCCC1=[N+]1CCOCC1` (configuration not stated) are greater than 200 µM and 32.4 µM.
Taken in the same sequence, the figures for `CC(=O)N1C(=O)CC23c4cccc([N+](=O)[O-])c4C(=O)N2CCCN13` (configuration not stated) were greater than 398 µM and greater than 398 µM.
Turning to `CC1C(c2ccccc2)NC(c2ccccc2)CC1(N)C#N` (configuration not stated), the EC50 is greater than 123 µM and the IC50 was greater than 123 µM.
In the case of `COc1cc(C)c2c(c1)C=C1C(=O)C(=O)C(C(C)C)=C(O)C1=CC2`, the outcome was inactive.
`COC(=O)C1=C(C)NC2=C(C(=O)CCC2)C1CCS(C)=O` (configuration not stated): the EC50 is greater than 200 µM and the IC50 is greater than 200 µM.
With `CC(=O)NNc1nc(C)c(C(/C=C/c2ccc([N+](=O)[O-])cc2)=N/NC(N)=O)s1`, the EC50 was greater than 33.9 µM and the IC50 is greater than 33.9 µM.
Regarding `O=C1OCOC1C1OCOC1=O` (configuration not stated), the EC50 was greater than 200 µM and the IC50 turned out to be 19.1 µM.
Turning to `Cn1ccc(C(=O)N2CCSC2=S)c(OCc2ccccc2)c1=O`, the EC50 is greater than 200 µM and the IC50 was 120 µM.
Taken in the same sequence, the figures for `O=c1c2cc(Br)ccc2ncn1COCc1ccccc1` were greater than 200 µM and 89.1 µM.
Taken in the same sequence, the figures for `CN(CCO)CCCC1COc2ccccc2O1` (configuration not stated) were greater than 200 µM and greater than 200 µM.
In the same order, the values of `CCOP(=O)(OCC)OC1CC(n2cc(C)c(=O)n(C)c2=O)OC1CO[Si](C)(C)C(C)(C)C` (configuration not stated) are greater than 200 µM and 107 µM.
